Source: ChEMBL document CHEMBL1201862, “PubChem BioAssay data set” (2004)
The source made the active and inactive calls.

Experiments:
Format in all cases: functional
Caspase-3 = biological target: T1, Caspase-3 (Homo sapiens, UniProt P42574);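 note: Dose-response selectivity test against caspase-3 for candidate inhibitors of sentrin-specific proteases (SENPs)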
T1 sequence (P42574 whole entry): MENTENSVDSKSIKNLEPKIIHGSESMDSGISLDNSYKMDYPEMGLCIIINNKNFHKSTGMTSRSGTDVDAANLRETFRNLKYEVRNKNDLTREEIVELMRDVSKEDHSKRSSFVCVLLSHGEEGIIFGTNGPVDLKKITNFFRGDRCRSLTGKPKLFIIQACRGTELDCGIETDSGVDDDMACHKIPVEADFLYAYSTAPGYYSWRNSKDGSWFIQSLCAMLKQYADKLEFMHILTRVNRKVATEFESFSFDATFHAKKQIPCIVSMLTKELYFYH

[1] = biological target: T2, Sentrin-specific protease 6 (Homo sapiens, UniProt Q9GZR1);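 note: Luminescence-based dose-response confirmatory assay of SENP6 inhibition, following up an ultra-high-throughput screen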
T2 sequence (Q9GZR1 whole entry): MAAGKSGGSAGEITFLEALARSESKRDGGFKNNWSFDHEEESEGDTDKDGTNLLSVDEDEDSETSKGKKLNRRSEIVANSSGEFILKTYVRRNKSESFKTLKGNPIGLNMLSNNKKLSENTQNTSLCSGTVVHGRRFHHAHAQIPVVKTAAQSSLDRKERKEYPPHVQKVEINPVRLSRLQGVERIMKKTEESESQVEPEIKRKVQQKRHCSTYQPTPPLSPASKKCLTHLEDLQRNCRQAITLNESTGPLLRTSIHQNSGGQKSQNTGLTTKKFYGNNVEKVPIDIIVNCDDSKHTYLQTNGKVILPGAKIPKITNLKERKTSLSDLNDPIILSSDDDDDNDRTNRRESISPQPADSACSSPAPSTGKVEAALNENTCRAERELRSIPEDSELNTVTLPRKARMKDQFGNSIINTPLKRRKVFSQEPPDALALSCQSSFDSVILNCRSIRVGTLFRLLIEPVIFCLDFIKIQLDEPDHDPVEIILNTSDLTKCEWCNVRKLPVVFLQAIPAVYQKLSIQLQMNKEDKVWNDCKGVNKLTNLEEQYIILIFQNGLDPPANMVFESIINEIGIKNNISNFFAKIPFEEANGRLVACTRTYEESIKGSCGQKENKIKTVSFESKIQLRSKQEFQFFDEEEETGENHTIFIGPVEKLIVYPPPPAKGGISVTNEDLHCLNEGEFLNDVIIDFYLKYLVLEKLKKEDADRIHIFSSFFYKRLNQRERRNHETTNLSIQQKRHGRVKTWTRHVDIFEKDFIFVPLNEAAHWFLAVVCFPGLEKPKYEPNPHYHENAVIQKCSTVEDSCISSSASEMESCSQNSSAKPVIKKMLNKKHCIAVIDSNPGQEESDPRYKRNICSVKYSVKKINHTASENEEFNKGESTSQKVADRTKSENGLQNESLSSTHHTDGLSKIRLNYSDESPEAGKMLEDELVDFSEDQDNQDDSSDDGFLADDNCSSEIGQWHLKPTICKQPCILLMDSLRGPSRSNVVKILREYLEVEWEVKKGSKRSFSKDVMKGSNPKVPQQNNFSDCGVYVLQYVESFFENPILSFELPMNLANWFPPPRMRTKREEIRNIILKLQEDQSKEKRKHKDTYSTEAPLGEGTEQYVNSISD

[2] = biological target: Cyclin-dependent kinase 7 (Homo sapiens, UniProt P50613);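 note: value comes from a kinome-wide kinase profiling panel in which CDK7 is one member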
[3] = biological target: Inhibitor of nuclear factor kappa-B kinase subunit epsilon (Homo sapiens, UniProt Q14164); assay: Navigating the Kinome. Panel member name: IKBKE
[4] = biological target: Cyclin-dependent kinase 8 (Homo sapiens, UniProt P49336); assay: Navigating the Kinome. Panel member name: CDK8
[5] = biological target: Mitogen-activated protein kinase kinase kinase kinase 4 (Homo sapiens, UniProt O95819)
[6] = biological target: Glycogen synthase kinase-3 alpha (Homo sapiens, UniProt P49840);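 note: GSK3A result taken from a broad kinome-wide kinase panel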
Activin receptor type-1 = Activin receptor type-1 (Homo sapiens, UniProt Q04771); assay: Navigating the Kinome. Panel member name: ACVR1
[7] = biological target: Cyclin-dependent kinase 5 (Homo sapiens, UniProt Q00535);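 note: CDK5 measured as one member of a kinase profiling panel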
[8] = biological target: Casein kinase I isoform alpha (Homo sapiens, UniProt P48729)
[9] = biological target: Tyrosine-protein kinase JAK2 (Homo sapiens, UniProt O60674);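 note: JAK2 tested as one member of a kinase panel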
[10] = biological target: Insulin-like growth factor 1 receptor (Homo sapiens, UniProt P08069); assay: Navigating the Kinome. Panel member name: IGF1R
[11] = biological target: Macrophage colony-stimulating factor 1 receptor (Homo sapiens, UniProt P07333);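 note: value comes from the Navigating the Kinome screening panel, CSF1R member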
Chain of Macrophage colony-stimulating factor 1 receptor (P07333 whole entry): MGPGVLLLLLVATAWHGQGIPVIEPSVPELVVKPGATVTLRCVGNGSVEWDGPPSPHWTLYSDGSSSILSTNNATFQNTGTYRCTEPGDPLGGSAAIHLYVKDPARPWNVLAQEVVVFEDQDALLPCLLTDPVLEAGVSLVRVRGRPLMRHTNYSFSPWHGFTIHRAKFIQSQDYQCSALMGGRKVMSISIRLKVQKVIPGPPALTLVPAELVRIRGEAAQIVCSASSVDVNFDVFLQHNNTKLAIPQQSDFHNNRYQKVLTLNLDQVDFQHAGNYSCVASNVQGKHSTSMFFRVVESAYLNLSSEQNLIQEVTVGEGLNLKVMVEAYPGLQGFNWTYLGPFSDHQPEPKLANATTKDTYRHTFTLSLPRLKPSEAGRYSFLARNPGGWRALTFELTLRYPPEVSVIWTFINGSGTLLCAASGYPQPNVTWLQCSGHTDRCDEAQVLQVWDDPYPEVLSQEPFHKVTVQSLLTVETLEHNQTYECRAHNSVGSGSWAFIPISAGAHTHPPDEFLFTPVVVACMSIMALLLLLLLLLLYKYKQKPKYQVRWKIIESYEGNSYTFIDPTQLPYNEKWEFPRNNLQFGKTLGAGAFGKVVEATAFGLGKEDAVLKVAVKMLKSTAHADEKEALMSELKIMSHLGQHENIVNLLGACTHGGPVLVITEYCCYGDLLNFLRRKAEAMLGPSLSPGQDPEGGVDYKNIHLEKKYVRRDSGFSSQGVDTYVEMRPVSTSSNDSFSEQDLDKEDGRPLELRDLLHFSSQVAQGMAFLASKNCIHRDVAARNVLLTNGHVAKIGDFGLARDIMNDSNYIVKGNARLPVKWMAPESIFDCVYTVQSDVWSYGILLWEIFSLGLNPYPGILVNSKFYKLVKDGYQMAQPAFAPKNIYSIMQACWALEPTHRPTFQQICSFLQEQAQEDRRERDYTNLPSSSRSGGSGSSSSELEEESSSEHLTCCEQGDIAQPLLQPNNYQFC

Chain of Inhibitor of nuclear factor kappa-B kinase subunit epsilon (Q14164 whole entry): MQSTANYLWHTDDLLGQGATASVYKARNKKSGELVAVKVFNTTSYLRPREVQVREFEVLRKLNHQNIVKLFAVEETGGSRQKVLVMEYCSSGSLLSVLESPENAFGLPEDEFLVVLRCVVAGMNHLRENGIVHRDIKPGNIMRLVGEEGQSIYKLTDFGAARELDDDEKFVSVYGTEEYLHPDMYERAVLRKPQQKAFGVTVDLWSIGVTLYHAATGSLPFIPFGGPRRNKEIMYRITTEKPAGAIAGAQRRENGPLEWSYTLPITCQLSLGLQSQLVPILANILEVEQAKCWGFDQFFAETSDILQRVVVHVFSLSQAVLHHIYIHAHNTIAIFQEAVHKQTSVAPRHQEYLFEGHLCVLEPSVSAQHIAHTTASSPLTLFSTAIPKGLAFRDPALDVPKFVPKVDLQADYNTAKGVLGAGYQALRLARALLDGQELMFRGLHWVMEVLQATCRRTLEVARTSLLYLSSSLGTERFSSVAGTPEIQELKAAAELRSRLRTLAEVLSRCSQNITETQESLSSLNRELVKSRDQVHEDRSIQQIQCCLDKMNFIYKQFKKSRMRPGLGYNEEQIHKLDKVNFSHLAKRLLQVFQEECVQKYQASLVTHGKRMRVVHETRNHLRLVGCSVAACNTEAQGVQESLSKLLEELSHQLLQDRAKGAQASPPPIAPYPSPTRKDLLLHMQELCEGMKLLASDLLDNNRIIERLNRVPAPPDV
Chain of Activin receptor type-1 (Q04771 whole entry): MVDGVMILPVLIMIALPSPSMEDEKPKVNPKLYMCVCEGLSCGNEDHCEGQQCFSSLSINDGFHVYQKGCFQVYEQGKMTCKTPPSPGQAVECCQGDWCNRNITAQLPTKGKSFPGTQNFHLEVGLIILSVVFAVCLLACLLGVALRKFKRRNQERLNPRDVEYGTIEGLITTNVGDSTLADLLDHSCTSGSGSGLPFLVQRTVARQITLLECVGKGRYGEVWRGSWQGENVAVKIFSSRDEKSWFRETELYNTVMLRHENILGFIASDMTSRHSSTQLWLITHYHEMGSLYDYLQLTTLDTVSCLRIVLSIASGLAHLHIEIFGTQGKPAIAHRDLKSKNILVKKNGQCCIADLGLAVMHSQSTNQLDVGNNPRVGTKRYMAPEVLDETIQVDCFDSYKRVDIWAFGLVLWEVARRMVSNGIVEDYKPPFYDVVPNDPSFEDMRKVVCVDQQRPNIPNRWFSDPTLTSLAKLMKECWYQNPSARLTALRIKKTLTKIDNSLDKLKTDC
Chain of Cyclin-dependent kinase 7 (P50613 whole entry): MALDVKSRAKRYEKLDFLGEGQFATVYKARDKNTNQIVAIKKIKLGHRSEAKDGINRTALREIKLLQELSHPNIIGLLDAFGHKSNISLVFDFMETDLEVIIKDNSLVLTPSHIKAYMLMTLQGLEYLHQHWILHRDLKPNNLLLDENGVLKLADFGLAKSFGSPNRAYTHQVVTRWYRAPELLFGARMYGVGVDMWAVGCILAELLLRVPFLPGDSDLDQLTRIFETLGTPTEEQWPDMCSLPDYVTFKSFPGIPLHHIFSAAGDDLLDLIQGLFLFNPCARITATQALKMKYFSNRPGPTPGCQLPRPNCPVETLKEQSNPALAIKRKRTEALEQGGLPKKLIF
Chain of Glycogen synthase kinase-3 alpha (P49840 whole entry): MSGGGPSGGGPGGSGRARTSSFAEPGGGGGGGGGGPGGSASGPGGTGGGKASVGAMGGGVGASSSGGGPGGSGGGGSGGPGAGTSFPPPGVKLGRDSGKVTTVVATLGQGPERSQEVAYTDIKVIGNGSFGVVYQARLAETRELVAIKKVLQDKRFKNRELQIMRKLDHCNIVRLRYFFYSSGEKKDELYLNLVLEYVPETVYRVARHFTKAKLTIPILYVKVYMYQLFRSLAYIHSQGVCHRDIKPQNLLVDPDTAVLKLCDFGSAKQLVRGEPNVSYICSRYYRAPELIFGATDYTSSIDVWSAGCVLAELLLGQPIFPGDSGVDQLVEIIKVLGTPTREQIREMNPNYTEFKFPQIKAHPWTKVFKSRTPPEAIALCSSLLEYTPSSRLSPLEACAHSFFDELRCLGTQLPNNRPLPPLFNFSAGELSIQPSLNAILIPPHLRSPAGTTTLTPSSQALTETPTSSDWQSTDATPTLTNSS
Chain of Insulin-like growth factor 1 receptor (P08069 31-736 limits assumed): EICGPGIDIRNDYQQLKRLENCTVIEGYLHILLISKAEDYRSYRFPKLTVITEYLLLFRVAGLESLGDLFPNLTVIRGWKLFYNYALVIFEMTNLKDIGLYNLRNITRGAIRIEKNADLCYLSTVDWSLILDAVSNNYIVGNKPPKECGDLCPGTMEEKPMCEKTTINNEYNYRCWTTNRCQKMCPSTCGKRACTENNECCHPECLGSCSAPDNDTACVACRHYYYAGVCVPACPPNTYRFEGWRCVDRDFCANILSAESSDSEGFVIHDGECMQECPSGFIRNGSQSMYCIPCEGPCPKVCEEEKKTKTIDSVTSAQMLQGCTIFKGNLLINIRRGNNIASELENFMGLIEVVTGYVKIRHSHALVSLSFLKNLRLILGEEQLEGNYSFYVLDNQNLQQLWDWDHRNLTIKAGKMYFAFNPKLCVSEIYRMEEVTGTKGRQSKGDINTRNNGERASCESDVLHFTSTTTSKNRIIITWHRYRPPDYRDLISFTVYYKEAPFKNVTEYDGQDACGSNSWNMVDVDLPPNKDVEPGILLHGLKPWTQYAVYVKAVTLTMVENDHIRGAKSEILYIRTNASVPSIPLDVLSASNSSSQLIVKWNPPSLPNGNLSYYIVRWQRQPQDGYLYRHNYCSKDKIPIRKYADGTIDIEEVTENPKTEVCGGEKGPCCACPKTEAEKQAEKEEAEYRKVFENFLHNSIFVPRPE
Chain of Insulin-like growth factor 1 receptor (P08069 741-1367 limits assumed): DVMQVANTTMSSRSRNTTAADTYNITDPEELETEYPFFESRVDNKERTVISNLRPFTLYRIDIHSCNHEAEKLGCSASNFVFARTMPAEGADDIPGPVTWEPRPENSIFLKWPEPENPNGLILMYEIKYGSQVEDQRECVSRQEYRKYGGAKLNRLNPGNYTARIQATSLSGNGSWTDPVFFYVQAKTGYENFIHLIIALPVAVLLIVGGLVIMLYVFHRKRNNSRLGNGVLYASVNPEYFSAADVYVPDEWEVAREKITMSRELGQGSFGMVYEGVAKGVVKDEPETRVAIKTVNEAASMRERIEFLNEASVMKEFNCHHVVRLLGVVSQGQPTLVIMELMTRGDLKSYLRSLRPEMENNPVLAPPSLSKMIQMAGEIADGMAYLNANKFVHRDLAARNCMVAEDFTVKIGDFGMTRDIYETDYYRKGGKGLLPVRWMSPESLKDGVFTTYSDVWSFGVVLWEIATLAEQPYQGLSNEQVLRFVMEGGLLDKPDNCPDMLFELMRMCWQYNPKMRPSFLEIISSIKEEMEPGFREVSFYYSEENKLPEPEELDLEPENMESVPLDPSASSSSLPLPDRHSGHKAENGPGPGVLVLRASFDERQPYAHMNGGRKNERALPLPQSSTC
Chain of Cyclin-dependent kinase 5 (Q00535 whole entry, canonical isoform): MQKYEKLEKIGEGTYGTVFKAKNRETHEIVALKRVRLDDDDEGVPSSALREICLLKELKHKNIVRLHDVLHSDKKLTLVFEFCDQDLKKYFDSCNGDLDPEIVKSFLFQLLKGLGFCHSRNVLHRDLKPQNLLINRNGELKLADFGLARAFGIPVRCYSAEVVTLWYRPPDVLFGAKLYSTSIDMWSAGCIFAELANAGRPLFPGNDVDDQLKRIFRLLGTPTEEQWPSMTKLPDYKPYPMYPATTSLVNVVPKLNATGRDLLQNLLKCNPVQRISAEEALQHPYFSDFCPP
Chain of Casein kinase I isoform alpha (P48729 whole entry, canonical isoform): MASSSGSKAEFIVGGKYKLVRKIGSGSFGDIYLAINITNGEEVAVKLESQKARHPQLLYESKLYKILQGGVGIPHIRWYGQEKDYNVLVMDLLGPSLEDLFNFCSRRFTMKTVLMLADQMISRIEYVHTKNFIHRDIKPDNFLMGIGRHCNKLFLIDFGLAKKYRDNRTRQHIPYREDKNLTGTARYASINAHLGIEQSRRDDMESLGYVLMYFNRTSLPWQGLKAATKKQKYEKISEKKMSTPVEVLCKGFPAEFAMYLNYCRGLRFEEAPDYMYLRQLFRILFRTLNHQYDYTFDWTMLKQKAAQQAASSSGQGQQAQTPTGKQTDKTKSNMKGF

| Compound | IC50 (Caspase-3) | IC50 [1] | Ki [2] | Ki [3] | Ki [4] | Ki [5] | Ki [6] | Ki (Activin receptor type-1) | Ki [7] | Ki [8] | Ki [9] | Ki [10] | Ki [11] |
| --- | --- | --- | --- | --- | --- | --- | --- | --- | --- | --- | --- | --- | --- |
| Cc1ccc(NC2=C(NCCO)C(=O)c3ccccc3C2=O)cc1 | 11400 nM (active) | 6660 nM (active) | – | – | – | – | – | – | – | – | – | – | – |
| CC(/C=C1\SC(=S)N(NS(=O)(=O)c2ccc(C)cc2)C1=O)=C\c1ccccc1 | 12900 nM (active) | 3120 nM (active) | – | – | – | – | – | – | – | – | – | – | – |
| Cc1ccc(C)c(NC(=O)c2cc(-c3ccco3)nc3ccccc23)c1 | – | – | 3980 nM (active) | 3160 nM (active) | 1000 nM (active) | > 5010 nM (inactive) | > 3980 nM (inactive) | 3160 nM (active) | 1000 nM (active) | – | – | – | – |
| COc1ccc(C2=NNc3cccc4c(OC)ccc2c34)cc1OC | – | – | > 3980 nM (inactive) | 501 nM (active) | > 3980 nM (inactive) | 398 nM (active) | > 3980 nM (inactive) | 631 nM (active) | 251 nM (active) | 12.6 nM (active) | 1000 nM (active) | > 2510 nM (inactive) | > 2510 nM (inactive) |
| CN1CCC(c2c(O)cc(O)c3c(=O)cc(-c4ccccc4Cl)oc23)C(O)C1 (stereo unspecified) | – | – | – | – | – | – | – | – | – | > 5010 nM (inactive) | > 2000 nM (inactive) | > 2000 nM (inactive) | > 2510 nM (inactive) |
